{
  "source": "patent US20180021417A1",
  "about": "“ADJUVANT COMPOSITIONS COMPRISING A NON-IONIC ISOTONICITY AGENT” (GLAXOSMITHKLINE BIOLOGICALS, SA, priority 2009, published 2018)",
  "system": "chicken Red Blood cells (RBC)",
  "assay": "QS21 lytic activity, haemolysis assay (limit test)",
  "assay_type": "cell-based",
  "conditions": "example QS21 curve, 150 mM sodium chloride buffer; OD 0.12",
  "experimental": "QS21 is known to lyse red blood cells (RBC).\nQS21 lytic activity was measured by a haemolysis assay using chicken Red Blood cells (RBC). RBC were centrifuged at 550 g at 4° C. Supernatant was discarded. The pellet was carefully resuspended in PBS buffer to reach the initial volume and the same operation was repeated until supernatant was no longer red (generally 3 times). The pellet was stored at 4° C. for 3 to 4 days maximum if not used directly (and washed again the day it is used) or was diluted around 10 times in buffer if used the same day.\nA QS21 dose range curve was prepared in ASA buffer (in salt or in sorbitol buffer following the ASA sample tested) extemporaneously and the adjuvant samples (containing a 50 μg or 90 μg equivalent of QS21 meaning the equivalent of 500 μl or 900 μl ASA) were prepared. Final volume was adjusted to 900 μl in standards and samples with adequate buffer (containing or not sorbitol as a function of the buffer of the sample tested). Due to its opalescence, ASA interferes in optical density (OD). […] Optical density at 540 nm was measured after centrifugation. […]\n1. Limit of detection (LOD) was defined as the lowest concentration of QS21 leading to an OD: • Higher than the base level (OD>0.1) • Around three times higher than OD's buffer (the “o μg” QS21) • In the ascendant part of the curve • Determined for each test. […]",
  "data": [
    {"substance": "QS21", "values": [
      {"measurement": "Limit of Detection (lowest QS21 amount giving lytic OD)", "value": 0.9, "unit": "µg"}
    ]}
  ]
}
